Experiments:
TRPMLs = conditions: high concentrations needed; HEK293 cells expressing plasma-membrane TRPML1; cited from earlier work
TRPML3 = molecular target: T1, TRPML3 (Homo sapiens, UniProt Q8TDD5); experiment: Fluorescent TRPML3 assay (as for TRPML1); assay type: cell-based
T1 construct: expressed in transfected cells
T1 sequence (Q8TDD5 1-553): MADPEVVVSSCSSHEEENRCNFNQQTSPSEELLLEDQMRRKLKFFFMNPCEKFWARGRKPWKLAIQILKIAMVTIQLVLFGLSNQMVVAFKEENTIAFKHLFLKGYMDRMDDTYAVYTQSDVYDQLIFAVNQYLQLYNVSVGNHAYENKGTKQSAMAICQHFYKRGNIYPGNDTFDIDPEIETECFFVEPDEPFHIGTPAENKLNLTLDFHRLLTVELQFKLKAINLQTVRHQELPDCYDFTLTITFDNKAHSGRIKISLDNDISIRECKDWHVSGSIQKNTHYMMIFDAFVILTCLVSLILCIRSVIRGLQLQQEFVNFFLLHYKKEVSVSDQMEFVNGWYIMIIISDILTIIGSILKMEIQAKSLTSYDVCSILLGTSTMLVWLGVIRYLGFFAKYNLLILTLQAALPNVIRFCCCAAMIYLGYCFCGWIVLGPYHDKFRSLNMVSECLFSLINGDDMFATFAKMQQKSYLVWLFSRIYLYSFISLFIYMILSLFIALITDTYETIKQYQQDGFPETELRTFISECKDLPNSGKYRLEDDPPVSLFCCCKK
In short: (§1)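 EC50 came from non-linear regression of percent activity, set against on-plate positive and negative controls, using Fluo4 fluorescence (ex 480, em 540 nm). Compounds ran in triplicate from 6 nM to 20 µM final in half-log steps. Doxycycline-induced (0.5 ug/mL) HEK-293 Trex cells expressing surface-directed mutant channel were in 10 mM calcium Ringer's.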

human TRPML1 = human TRPML1 (Homo sapiens, UniProt Q9GZU1); experiment: Fluorescent TRPML1 assay (Fluo4-AM calcium fluorescence, HEK-293 Trex cells); assay type: cell-based
In short: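 Agonist EC50 from non-linear regression of percent activity versus on-plate controls, calcium signal read at 480/540 nm. Compounds spanned 6 nM–20 μM final in triplicate. Cells: doxycycline-induced HEK-293 Trex with cell-surface human TRPML1 mutant, Fluo4-AM loaded, in Ringer's containing 10 mM calcium.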

TRPML2 = molecular target: T2, TRPML2 (Homo sapiens, UniProt Q8IZK6); experiment: Fluorescent TRPML2 assay (as for TRPML1); assay type: cell-based
T2 construct: expressed in transfected cells
T2 sequence (Q8IZK6 1-566): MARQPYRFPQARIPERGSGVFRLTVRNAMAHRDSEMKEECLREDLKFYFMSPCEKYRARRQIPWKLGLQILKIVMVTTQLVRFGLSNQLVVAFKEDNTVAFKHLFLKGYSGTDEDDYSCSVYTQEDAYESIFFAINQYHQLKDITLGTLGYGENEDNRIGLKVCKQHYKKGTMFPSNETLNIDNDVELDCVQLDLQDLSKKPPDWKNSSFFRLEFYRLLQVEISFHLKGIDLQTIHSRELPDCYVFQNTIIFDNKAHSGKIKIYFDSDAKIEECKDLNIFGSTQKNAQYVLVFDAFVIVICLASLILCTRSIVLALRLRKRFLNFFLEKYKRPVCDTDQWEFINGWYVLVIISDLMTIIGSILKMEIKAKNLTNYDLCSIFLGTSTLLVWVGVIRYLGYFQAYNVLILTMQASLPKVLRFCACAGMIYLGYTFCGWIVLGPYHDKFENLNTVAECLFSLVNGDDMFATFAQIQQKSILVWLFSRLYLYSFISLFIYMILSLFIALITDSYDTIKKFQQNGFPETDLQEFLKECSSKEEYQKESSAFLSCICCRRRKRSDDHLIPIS
In short: as §1

human TRPML1, sequence (Q9GZU1 whole entry L15A/L16A/L577A/L578A, form open): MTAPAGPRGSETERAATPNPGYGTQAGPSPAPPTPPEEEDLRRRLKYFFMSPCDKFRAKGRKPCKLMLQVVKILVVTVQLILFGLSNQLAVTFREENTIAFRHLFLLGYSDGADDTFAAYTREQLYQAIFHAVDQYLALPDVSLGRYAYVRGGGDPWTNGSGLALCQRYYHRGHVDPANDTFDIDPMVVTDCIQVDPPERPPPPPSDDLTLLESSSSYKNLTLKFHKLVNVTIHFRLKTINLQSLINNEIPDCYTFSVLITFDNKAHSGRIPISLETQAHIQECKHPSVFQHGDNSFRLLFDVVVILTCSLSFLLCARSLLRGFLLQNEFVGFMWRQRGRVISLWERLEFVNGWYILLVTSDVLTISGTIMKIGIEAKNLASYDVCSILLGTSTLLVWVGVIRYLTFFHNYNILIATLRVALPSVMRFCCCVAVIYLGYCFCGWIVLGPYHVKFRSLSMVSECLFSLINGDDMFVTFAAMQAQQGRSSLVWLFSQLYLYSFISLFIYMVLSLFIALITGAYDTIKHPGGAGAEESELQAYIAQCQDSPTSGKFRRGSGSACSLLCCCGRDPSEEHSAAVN

Compound: CC1CC(C)(C)N(C(=O)CN2C(=O)c3ccccc3C2=O)c2ccccc21 (stereo not shown) [ML-SA1]
- concentration needed to effectively activate TRPMLs (TRPMLs): ~10 µM

Compound: C[C@@H]1CN(c2ncnc3c2c(C2CC2)cn3-c2cc(C#N)ccn2)[C@@H](C)CN1C(=O)CC(C)(C)C [Compound 153, 2-(5-cyclopropyl-4-((2S,5R)-4-(3,3-dimethylbutanoyl)-2,5-dimethylpiperazin-1-yl)-7H-pyrrolo[2,3-d]pyrimidin-7-yl)isonicotinonitrile]
- EC50 (TRPML3; Table 3, compounds 101-177): < 100 nM
- EC50 (human TRPML1; Table 3, compounds 101-177): < 100 nM
- EC50 (TRPML2; Table 3, compounds 101-177): 500 to 2000 nM

Compound: C[C@@H]1CN(c2ncnc3c2c(C2CCC2)cn3-c2cccc(F)c2)[C@@H](C)CN1C(=O)C(C)(C)C [Compound 250, 1-((2R,5S)-4-(5-cyclobutyl-7-(3-fluorophenyl)-7H-pyrrolo[2,3-d]pyrimidin-4-yl)-2,5-dimethylpiperazin-1-yl)-2,2-dimethylpropan-1-one]
- EC50 (TRPML3; Table 3, compounds 201-283): 500 to 2000 nM
- EC50 (human TRPML1; Table 3, compounds 201-283): 100 to 500 nM
- EC50 (TRPML2; Table 3, compounds 201-283): > 2000 nM

Compound: COC(C)(C)C(=O)N1C[C@H](C)N(c2ncnc3c2c(-c2ccccc2)cn3-c2cc(C#N)ccn2)C[C@H]1C [Compound 282, 2-(4-((2S,5R)-4-(2-methoxy-2-methylpropanoyl)-2,5-dimethylpiperazin-1-yl)-5-phenyl-7H-pyrrolo[2,3-d]pyrimidin-7-yl)isonicotinonitrile]
- EC50 (TRPML3; Table 3, compounds 201-283): < 100 nM
- EC50 (human TRPML1; Table 3, compounds 201-283): < 100 nM
- EC50 (TRPML2; Table 3, compounds 201-283): < 100 nM

Compound: C[C@@H]1CN(c2ncnc3c2c(C(F)(F)F)cn3-c2cc(C#N)ccn2)[C@@H](C)CN1C(=O)CC(C)(C)C [Compound 209, 2-(4-((2S,5R)-4-(3,3-dimethylbutanoyl)-2,5-dimethylpiperazin-1-yl)-5-(trifluoromethyl)-7H-pyrrolo[2,3-d]pyrimidin-7-yl)isonicotinonitrile]
- EC50 (TRPML3; Table 3, compounds 201-283): < 100 nM
- EC50 (human TRPML1; Table 3, compounds 201-283): < 100 nM
- EC50 (TRPML2; Table 3, compounds 201-283): < 100 nM

Compound: COC(C)(C)C(=O)N1C[C@H](C)N(c2ncnc3c2c(C2CC2)cn3-c2cc(C#N)ccn2)C[C@H]1C [Compound 264, 2-(5-cyclopropyl-4-((2S,5R)-4-(2-methoxy-2-methylpropanoyl)-2,5-dimethylpiperazin-1-yl)-7H-pyrrolo[2,3-d]pyrimidin-7-yl)isonicotinonitrile]
- EC50 (TRPML3; Table 3, compounds 201-283): < 100 nM
- EC50 (human TRPML1; Table 3, compounds 201-283): < 100 nM
- EC50 (TRPML2; Table 3, compounds 201-283): 500 to 2000 nM

— patent US20240398812A1 (Caraway Therapeutics, Inc., priority 2021, published 2024)
